In patent publication US20160108027A1, “SUBSTITUTED BENZOXAZOLES” (BAYER PHARMA AKTIENGESELLSCHAFT, priority 2013, published 2016):

How the values were obtained:
thrombin [1] = target: T1, thrombin (Homo sapiens, UniProt P00734); assay: Determination of the thrombin-inhibitory activity in plasma samples (ecarin-activated); assay type: biochemical; settings: citrate plasma, ecarin activation, fluorogenic thrombin substrate; in some cases means of individual determinations
Outline: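 Citrate plasma activated with ecarin (final 20 mU per reaction) in Ca buffer (Hepes, NaCl, CaCl2, PEG), with compound diluted from DMSO into water. Fluorogenic thrombin substrate at final 50 μmol/l; fluorescence (ex 360/em 465 nm) read each minute for 20 minutes, with buffer-only unstimulated control.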

thrombin [2] = target: T1, thrombin; assay: Measurement of the thrombin inhibition in buffer; assay type: biochemical; settings: human thrombin 0.06 nmol/l in Tris buffer pH 7.4, 22° C., substrate Boc-Asp(OBzl)-Pro-Arg-AMC; in some cases means of individual determinations
Outline: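 Compound pre-incubated 15 min at 22° C with 0.06 nmol/l human thrombin in 50 mmol/l Tris, 100 mmol/l NaCl, 0.1% BSA, pH 7.4, then 5 μmol/l Boc-Asp(OBzl)-Pro-Arg-AMC added for 30 min. AMC fluorescence read at 360/460 nm against DMSO controls; IC50 from concentration–activity curves.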

Row | Structure (SMILES) | IC50 (thrombin [1]) [nM] | IC50 (thrombin [2]) [nM]
1 | COCC1C(=O)N2CCC2CN1C(=O)c1cc(OC)c2oc(NCc3cc(Cl)ccn3)nc2c1 (single isomer, unassigned) [Example 74, 4-[(2-{[(4-Chloropyridin-2-yl)methyl]amino}-7-methoxy-1,3-benzoxazol-5-yl)carbonyl]-3-(methoxymethyl)-1,4-diazabicyclo[4.2.0]octan-2-one] | 56 | 32
2 | COc1cc(C(=O)N2CC3CCN3C(=O)C2C)cc2nc(NCc3cc(Cl)ccn3)oc12 (single isomer, unassigned) [Example 75, 4-[(2-{[(4-Chloropyridin-2-yl)methyl]amino}-7-methoxy-1,3-benzoxazol-5-yl)carbonyl]-3-methyl-1,4-diazabicyclo[4.2.0]octan-2-one] | 48 | 32
3 | CCC1C(=O)NC2(CC2)CN1C(=O)c1cc(OC)c2oc(NCc3cc(Cl)ccn3)nc2c1 (single isomer, unassigned) [Example 79, 7-[(2-{[(4-Chloropyridin-2-yl)methyl]amino}-7-methoxy-1,3-benzoxazol-5-yl)carbonyl]-6-ethyl-4,7-diazaspiro[2.5]octan-5-one] | 14 | 4.5
4 | CCC1C(=O)NC(C)CN1C(=O)c1cc(OC)c2oc(NCc3cc(Cl)ccn3)nc2c1 (single isomer, unassigned) [Example 80, 4-[(2-{[(4-Chloropyridin-2-yl)methyl]amino}-7-methoxy-1,3-benzoxazol-5-yl)carbonyl]-3-ethyl-6-methylpiperazin-2-one] | 16 | 16
5 | CCC1C(=O)NC(C)CN1C(=O)c1cc(OC)c2oc(NCc3cc(Cl)ccn3)nc2c1 (single isomer, unassigned) [Example 81, 4-[(2-{[(4-Chloropyridin-2-yl)methyl]amino}-7-methoxy-1,3-benzoxazol-5-yl)carbonyl]-3-ethyl-6-methylpiperazin-2-one] | 32 | 12
6 | COc1cc(C(=O)N2CC(C)CCC2CCO)cc2nc(NCc3cc(Cl)ccn3)oc12 (single isomer, unassigned) [Example 85, (2-{[(4-Chloropyridin-2-yl)methyl]amino}-7-methoxy-1,3-benzoxazol-5-yl) [2-(2-hydroxyethyl)-5-methylpiperidin-1-yl]methanone] | 47 | 17
7 | COc1cc(C(=O)N2CC(C)CCC2C2(O)CC2)cc2nc(NCc3cc(Cl)ccn3)oc12 (single isomer, unassigned) [Example 89, (2-{[(4-Chloropyridin-2-yl)methyl]amino}-7-methoxy-1,3-benzoxazol-5-yl) [2-(1-hydroxycyclopropyl)-5-methylpiperidin-1-yl]methanone] | 35 | 17
8 | COc1cc(C(=O)N2CC(C)CCC2C2(O)CC2)cc2nc(NCc3cc(Cl)ccn3)oc12 (single isomer, unassigned) [Example 90, (2-{[(4-Chloropyridin-2-yl)methyl]amino}-7-methoxy-1,3-benzoxazol-5-yl) [2-(1-hydroxycyclopropyl)-5-methylpiperidin-1-yl]methanone] | 94 | 28
9 | COc1cc(C(=O)N2CC(C)NC(=O)C2CC#N)cc2nc(NCc3cc(Cl)ccn3)oc12 (single isomer, unassigned) [Example 92, {1-[(2-{[(4-Chloropyridin-2-yl)methyl]amino}-7-methoxy-1,3-benzoxazol-5-yl)carbonyl]-5-methyl-3-oxopiperazin-2-yl}acetonitrile] | 148 | 96
10 | CCO[C@@H]1CC(CO)N(C(=O)c2cc(OC)c3oc(NCc4cc(Cl)ccn4)nc3c2)C1 (stereo partly drawn) [Example 1, (2-{[(4-Chloropyridin-2-yl)methyl]amino}-7-methoxy-1,3-benzoxazol-5-yl)[(4R)-4-ethoxy-2-(hydroxymethyl)pyrrolidin-1-yl]methanone] | 25 | 15
11 | CCO[C@@H]1CC(CO)N(C(=O)c2cc(OC)c3oc(NC(C)c4cc(Cl)ccn4)nc3c2)C1 (stereo partly drawn) [Example 4, (2-{[1-(4-Chloropyridin-2-yl)ethyl]amino}-7-methoxy-1,3-benzoxazol-5-yl)[(4R)-4-ethoxy-2-(hydroxymethyl)pyrrolidin-1-yl]methanone] | 66 | 39
12 | COc1cc(C(=O)N2C[C@H](OC3CC3)C[C@H]2C(=O)N2CC(F)(F)C2)cc2nc(NCc3cc(Cl)ccn3)oc12 [Example 10, (2-{[(4-Chloropyridin-2-yl)methyl]amino}-7-methoxy-1,3-benzoxazol-5-yl){(2S,4R)-4-(cyclopropyloxy)-2-[(3,3-difluoroazetidin-1-yl)carbonyl]pyrrolidin-1-yl}methanone] | 39 | 31

Other lines, results leading:

Row | IC50 (thrombin [1]) [nM] | IC50 (thrombin [2]) [nM] | Structure (SMILES)
13 | 23 | 14 | COc1cc(C(=O)N2CC3(CC3)NC(=O)C2C)cc2nc(NCc3cc(Cl)ccn3)oc12 (single isomer, unassigned) [Example 77, 7-[(2-{[(4-Chloropyridin-2-yl)methyl]amino}-7-methoxy-1,3-benzoxazol-5-yl)carbonyl]-6-methyl-4,7-diazaspiro[2.5]octan-5-one]
14 | 21 | 11 | COc1cc(C(=O)N2CC(C)(C)NC(=O)C2CC#N)cc2nc(NCc3cc(Cl)ccn3)oc12 (single isomer, unassigned) [Example 84, {1-[(2-{[(4-chloropyridin-2-yl)methyl]amino}-7-methoxy-1,3-benzoxazol-5-yl)carbonyl]-5,5-dimethyl-3-oxopiperazin-2-yl}acetonitrile]
15 | 24 | 13 | COc1cc(C(=O)N2CC(C)CCC2C2(O)CC2)cc2nc(NCc3cc(Cl)ccn3)oc12 (single isomer, unassigned) [Example 91, (2-{[(4-Chloropyridin-2-yl)methyl]amino}-7-methoxy-1,3-benzoxazol-5-yl) [2-(1-hydroxycyclopropyl)-5-methylpiperidine-1-yl]methanone]
16 | 17 | 8.8 | COc1cc(C(=O)N2CC(C)(C)OCC2C(C)(C)O)cc2nc(NCc3cc(Cl)ccn3)oc12 (single isomer, unassigned) [Example 93, (2-{[(4-Chloropyridin-2-yl)methyl]amino}-7-methoxy-1,3-benzoxazol-5-yl) [5-(2-hydroxypropan-2-yl)-2,2-dimethylmorpholin-4-yl]methanone]
17 | 28 | 18 | COc1cc(C(=O)N2CC(C)(C)OCC2C2(O)CC2)cc2nc(NCc3cc(Cl)ccn3)oc12 (single isomer, unassigned) [Example 94, (2-{[(4-Chloropyridin-2-yl)methyl]amino}-7-methoxy-1,3-benzoxazol-5-yl) [5-(1-hydroxycyclopropyl)-2,2-dimethylmorpholin-4-yl]methanone]
18 | 13 | 6.8 | COc1cc(C(=O)N2CC(C)(C)OCC2C(C)O)cc2nc(NCc3cc(Cl)ccn3)oc12 (single isomer, unassigned) [Example 95, (2-{[(4-Chloropyridin-2-yl)methyl]amino}-7-methoxy-1,3-benzoxazol-5-yl) [5-(1-hydroxyethyl)-2,2-dimethylmorpholin-4-yl]methanone]
19 | 43 | 41 | COc1cc(C(=O)N2CC(C)(C)OCC2C(C)O)cc2nc(NCc3cc(Cl)ccn3)oc12 (single isomer, unassigned) [Example 96, (2-{[(4-Chloropyridin-2-yl)methyl]amino}-7-methoxy-1,3-benzoxazol-5-yl) [5-(1-hydroxyethyl)-2,2-dimethylmorpholin-4-yl]methanone]
